Consider 2 molecules from patent US9844534B2, “PKC delta inhibitors for use as therapeutics” (Faller & Williams Technology, LLC, priority 2012, dated 2017).

In one data set the test system is CNDT 2.5 cells. In words: Cell proliferation assay (MTT/MTS). Format: cell-based, human. The source says: (§1) Cell Lines: BON1, a human foregut (pancreatic) carcinoid tumor cell line (Parekh et al. 1994) was obtained from Kjell Oberg (Uppsala University, Sweden) through Dr. Evan Vosburgh. H727 cells, derived from a human bronchopulmonary carcinoid tumor (Schuller et al. 1987), were purchased from ATCC. The CNDT 2.5 cell line, initially described as a human midgut carcinoid tumor cell line (Van Buren et al. 2007), was provided by Dr. Lee Ellis, (MD Anderson Cancer Center). The provenance of this cell line is currently under review by the originator. BONI, H727, MCF10 and CNDT 2.5 cells were propagated in 10% FBS (Invitrogen); Dulbecco's Modification of Earle's Media/Hams F-12 50:50 media (Cellgro); 2 mM L-Glutamine (Invitrogen); 200 U Penicillin/ml; 200 μg Streptomycin/ml (Invitrogen); 10 ng/ml Nerve Growth Factor (Invitrogen); 1×MEM Non-Essential Amino Acids (Cellgro); 1×MEM Vitamin Solution (Cellgro); 1 mM Sodium Pyruvate; 0.015 M HEPES buffer (pH7.3) (American Bioanalytical).
(§2) Cell Proliferation Assays—Cell proliferation was assessed using an MTT [3-(4,5-dimethylthiazol-2-yl)-2,5-diphenyltetrazolium bromide] assay (Roche, Mannheim, Germany). The number of viable cells growing in a single well on a 96-well microtiter plate was estimated by adding 10 μl of MTT solution (5 mg/ml in phosphate-buffered saline [PBS]). After 4 h of incubation at 37° C., the stain is diluted with 100 μl of dimethyl sulfoxide. The optical densities are quantified at a test wavelength of 570 nm and a reference wavelength of 690 nm on a multiwell spectrophotometer. In some assays, MTS was used as substrate (Promega, Madison, Wis.), and the absorbance of the product was monitored at 490 nm.

The next data set concerns BON1 cells. The data set can be described thus: Cell proliferation assay (MTT/MTS). Format: cell-based, human.
Source text: as §1, §2

Data set [1] relates to H727 cells. In words: Cytotoxicity assay (LDH release). Format: cell-based, human. The text has this:
Briefly, total culture medium was cleared by centrifugation. For assay of released LDH, supernatants were collected.
(In general: LDH leaks from cells whose membrane has failed.)

Data set [2] deals with H727 cells. In words: Clonogenic assay. The note with it: H727, exposure 6-72 hr, replated without inhibitor. Format: cell-based, human. How it is done:
Clonogenic Assays: 100,000 cells were seeded on 100 mm dishes 5 with 10 ml media per dish (Li et al. 2004). […] Cells were trypsinized; counted via Trypan Blue Exclusion Method in order to determine the number of live cells in the sample, and 500 live cells were seeded in triplicate onto 6 well plates. Cells were monitored for appropriate colony size and re-fed every three to four days. At Day 17, cells were stained with ethidium bromide (Guda et al. 2007) and counted using UVP LabWorks software.
LDH release assesses cytotoxic damage sufficient to compromise membrane integrity over a relatively short time-span. An alternative method, which assesses lethal, but not necessarily immediate, cumulative damage to the tumor cell is a clonogenic assay. In this assay, tumor cells which remain viable after exposure to the compound are tested for their ability to proliferate sufficiently over time to form colonies of tumor cells. H727 treated with vehicle or a PKC delta inhibitor at sub-optimal concentrations varying durations. After replating of viable cells in media without inhibitor, colony numbers were quantitated over time.

Another data set deals with PKC delta (Homo sapiens, UniProt Q05655). The note with it: cultured cells, given as 'in vivo'; read-out: IC50, inhibition of PKC delta in cultured cells; cited from earlier work.
Sequence of PKC delta (Q05655 whole entry): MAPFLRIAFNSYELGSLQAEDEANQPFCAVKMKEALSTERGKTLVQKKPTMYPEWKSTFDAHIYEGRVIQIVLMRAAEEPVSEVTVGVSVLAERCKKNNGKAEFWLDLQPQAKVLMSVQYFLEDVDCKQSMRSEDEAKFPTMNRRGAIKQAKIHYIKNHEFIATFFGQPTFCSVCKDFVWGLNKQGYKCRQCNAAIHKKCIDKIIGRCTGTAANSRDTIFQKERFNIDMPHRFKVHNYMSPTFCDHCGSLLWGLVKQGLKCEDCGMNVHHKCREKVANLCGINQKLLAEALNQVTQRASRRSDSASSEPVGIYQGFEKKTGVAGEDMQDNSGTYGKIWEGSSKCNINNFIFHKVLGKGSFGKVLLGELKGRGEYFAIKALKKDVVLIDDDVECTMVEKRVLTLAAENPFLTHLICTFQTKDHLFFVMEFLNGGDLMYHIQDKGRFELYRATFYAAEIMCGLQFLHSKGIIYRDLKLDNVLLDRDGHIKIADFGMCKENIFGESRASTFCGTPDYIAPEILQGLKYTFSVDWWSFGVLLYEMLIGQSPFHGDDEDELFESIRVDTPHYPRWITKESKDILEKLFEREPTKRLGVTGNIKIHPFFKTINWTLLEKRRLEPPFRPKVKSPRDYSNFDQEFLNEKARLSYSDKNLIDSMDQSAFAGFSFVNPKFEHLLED
The subject of data set [3] is H727 cells. In words: Cell proliferation assay (MTT/MTS). Format: cell-based, human.
Source text: as §1, §2

Another data set has as its target T1, PKC alpha (Homo sapiens, UniProt P17252).
T1 construct: purchased Invitrogen
In words: PKC kinase activity assay (Omnia Kinase Assay). Format: biochemical. How it is done: PKC Kinase Activity Assays: Assays were carried out using recombinant PKC alpha or PKC gamma, (Invitrogen) and the Omnia® Kinase Assays (Invitrogen) with a “PKC kinase-specific” peptide substrate. Incorporation of a chelation-enhanced fluorophore (CHEF) results in an increase in fluorescence ex360/em485) upon phosphorylation. The kit was used according to the manufacturer's instructions.

The test system of data set [4] is nontumorigenic murine or human cells. The conditions noted are these: same culture conditions; cited from earlier work.
The test system of another data set is PKC delta protein. The conditions noted are these: longer periods of exposure; no effect on levels of other PKC isozymes; cited from earlier work.

pIC50: −log10 of the molar value.

On to “PKC delta-specific siRNA: siRNA duplexes targeting PKC delta (SEQ ID NO 1 and 2), obtained from Qiagen (chain 1 GAUGAAGGAGGCGCUCAGTT; chain 2 GGCUGAGUUCUGGCUGGACTT; chemistry not given here)”, for which the effect on proliferation entry is reported as “profound inhibition of proliferation” in the data set on CNDT 2.5 cells (CNDT, siRNA knockdown, MTS) and “profound inhibition of proliferation” with BON1 cells (BON1, siRNA knockdown, MTS).
Regarding `CC(=O)c1c(O)c(C)c(O)c(Cc2c(O)c3c(c(C(=O)/C=C/c4ccccc4)c2O)OC(C)(C)C=C3)c1O` [rottlerin], in the data set with H727 cells [1] (H727, 24, 48 and 72 hours), the “cytotoxicity as assessed by LDH release” value is “cytotoxicity increasing as a function of time and concentration”. The “LDH release versus vehicle control, significance” value with H727 cells [1] (H727, p<0.003) is “reached significance by 24 hr of exposure”. Also, in the data set with H727 cells [2], the “effect on clonogenic capacity versus DMSO control” value is “reached significance (p=0.0051) at 6 hr of exposure”. For the same molecule, the pIC50 on PKC delta was 5.30; in the data set on CNDT 2.5 cells (Homo sapiens, CNDT 2.5, by 48 hrs, read-out: IC50, decrease in cell number), around 5.30; in the data set on BON1 cells (Homo sapiens, BON1, by 48 hrs, read-out: IC50, decrease in cell number), around 5.30; in the data set with H727 cells [3] (Homo sapiens, NCI-H727, H727, by 48 hrs, read-out: IC50, decrease in cell number) it was around 5.30; against PKC alpha it was below 4.30. The “reduction in relative cell numbers” value in the data set on CNDT 2.5 cells (CNDT 2.5, by 72 hrs, highest concentrations tested) was “significant reduction in relative cell numbers”; in the data set with BON1 cells (BON1, by 72 hrs, highest concentrations tested), “significant reduction in relative cell numbers”; with H727 cells [3] (H727, by 72 hrs, highest concentrations tested) it was “significant reduction in relative cell numbers”. Further, the “growth-inhibitory effect on long-term exposure” value with CNDT 2.5 cells (CNDT, sub-optimal concentration (10 μM), re-fed with inhibitor after 72 hr) was “growth-inhibitory effects persisted to 168 hr”; with BON1 cells (BON1, sub-optimal concentration (10 μM), re-fed with inhibitor after 72 hr), “growth-inhibitory effects persisted to 168 hr”. Moreover, the “duration of exposure needed to inhibit proliferation (washout)” value in the data set on BON1 cells (BON1, sub-optimal concentration, inhibitor washed out, growth assessed over next 72 hrs) is on record as “statistically significant by 24 hr of exposure”. For the same molecule, the “effect on growth of nontumorigenic cells” value in data set [4] is reported as “no significant effect on the growth”. The “down-regulation of PKC delta protein in cells” value with PKC delta protein is “significantly down-regulates PKC delta protein”.
